According to patent publication US20060069132A1, “Azolecarboxamide herbicides” (priority 2004, published 2006):

Legend:
Assay in all cases: Test D flooded paddy test
Settings in all cases: 21 days, scale 0 to 100
ducksalad = assay type: in vivo, Heteranthera limosa
Description: (§1) Three plastic pots (ca. 16-cm diameter) per rate were partially filled with sterilized Tama silt loam soil comprising a 35:50:15 ratio of sand, silt and clay and 2.6% organic matter. Separate plantings for each of the three pots were as follows. Seeds from the U.S. of ducksalad (Heteranthera limosa (Sw.) Willd.), smallflower umbrella sedge (Cyperus difformis L.) and purple redstem (Ammannia coccinea Rottb.), were planted into one 16-cm pot for each rate. Seeds from the U.S. of rice flatsedge (Cyperus iria L.), bearded sprangletop (Leptochloa fascicularis (Lam.) Gray), one stand of 9 or 10 water seeded rice seedlings (Oryza sativa L. cv. ‘Japonica—M202’), and one stand of 6 transplanted rice seedlings (Oryza sativa L. cv. ‘Japonica—M202’) were planted into one 16-cm pot for each rate. Seeds from the U.S. of barnyardgrass (Echinochloa crus-galli (L.) Beauv.), late watergrass (Echinochloa oryzicola Vasinger), early watergrass (Echinochloa oryzoides (Ard.) Fritsch) and junglerice (Echinochloa colona (L.) Link) were planted into one 16-cm pot for each rate. Plantings were sequential so that crop and weed species were at the 2.0 to 2.5-leaf stage at time of treatment.
(§2) Potted plants were grown in a greenhouse with day/night temperature settings of 29.5/26.7° C., and supplemental balanced lighting was provided to maintain a 16-hour photoperiod. Test pots were maintained in the greenhouse until test completion.
(§3) At time of treatment, test pots were flooded to 3 cm above the soil surface, treated by application of test compounds directly to the paddy water, and then maintained at that water depth for the duration of the test. Effects of treatments on rice and weeds were visually evaluated by comparison to untreated controls after 21 days. Plant response ratings are reported on a 0 to 100 scale; where 0 is no effect and 100 is complete control. A dash (-) response means no test result.

[1] = system: smallflower umbrella sedge; assay type: in vivo, Cyperus difformis
Description: as §1, §2, §3

rice flatsedge = assay type: in vivo, Cyperus iria
Description: as §1, §2, §3

bearded sprangletop = assay type: in vivo, Leptochloa fascicularis
Description: as §1, §2, §3

junglerice = assay type: in vivo, Echinochloa colona
Description: as §1, §2, §3

SMILES: CCn1nc(C(C)(C)C)cc1C(=O)Nc1cc(C(=O)NCC2CC2)ccn1 [Compound 155]
- Plant response rating, Ducksalad (ducksalad; 32 g ai/ha): 0
- Plant response rating, Ducksalad (ducksalad; 64 g ai/ha): 0
- Plant response rating, Ducksalad (ducksalad; 125 g ai/ha): 0
- Plant response rating, Ducksalad (ducksalad; 250 g ai/ha): 60
- Plant response rating, Ducksalad (ducksalad; 500 g ai/ha): 60
- Plant response rating, Sedge, Umbrella ([1]; 32 g ai/ha): 30
- Plant response rating, Sedge, Umbrella ([1]; 64 g ai/ha): 65
- Plant response rating, Sedge, Umbrella ([1]; 125 g ai/ha): 75
- Plant response rating, Sedge, Umbrella ([1]; 250 g ai/ha): 75
- Plant response rating, Sedge, Umbrella ([1]; 500 g ai/ha): 80
- Plant response rating, Flatsedge, Rice (rice flatsedge; 32 g ai/ha): 0
- Plant response rating, Flatsedge, Rice (rice flatsedge; 64 g ai/ha): 0
- Plant response rating, Flatsedge, Rice (rice flatsedge; 125 g ai/ha): 30
- Plant response rating, Flatsedge, Rice (rice flatsedge; 250 g ai/ha): 60
- Plant response rating, Flatsedge, Rice (rice flatsedge; 500 g ai/ha): 70
- Plant response rating, Sprangletop, Bearded (bearded sprangletop; 32 g ai/ha): 30
- Plant response rating, Sprangletop, Bearded (bearded sprangletop; 64 g ai/ha): 30
- Plant response rating, Sprangletop, Bearded (bearded sprangletop; 125 g ai/ha): 30
- Plant response rating, Sprangletop, Bearded (bearded sprangletop; 250 g ai/ha): 40
- Plant response rating, Sprangletop, Bearded (bearded sprangletop; 500 g ai/ha): 75
- Plant response rating, Junglerice (junglerice; 32 g ai/ha): 20
- Plant response rating, Junglerice (junglerice; 64 g ai/ha): 40
- Plant response rating, Junglerice (junglerice; 125 g ai/ha): 40
- Plant response rating, Junglerice (junglerice; 250 g ai/ha): 40
- Plant response rating, Junglerice (junglerice; 500 g ai/ha): 65
